Test results taken from patent US20230085307A1, “PYRIDAZINONE COMPOUND AND HERBICIDE” (NISSAN CHEMICAL CORPORATION, priority 2019, published 2023).

Experiments:
late watergrass = assay: Test Example 1: herbicidal activity, application before weed generation under submerged conditions (Table 16, symbol A); type: in vivo, late watergrass (Echinochloa oryzicola); conditions: amount of applied herbicide 320 g/ha
Procedure, shortened: (§1)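 Alluvial soil was flooded to 4 cm depth, weed seeds were sown mixed and 2.5-leaf rice seedlings were transplanted. On sowing day, the compound's emulsion, diluted in water to a set dose, was applied to the water surface. Plants grew at 25–30 °C and were scored 0–5 after three weeks.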

Japanese bulrush = assay: Test Example 1: herbicidal activity, application before weed generation under submerged conditions (Table 16, symbol B); type: in vivo, Japanese bulrush (Schoenoplectus juncoides); conditions: amount of applied herbicide 320 g/ha
Procedure, shortened: as §1

oval-leafed pondweed = assay: Test Example 1: herbicidal activity, application before weed generation under submerged conditions (Table 16, symbol C); type: in vivo, oval-leafed pondweed (Monochoria vaginalis); conditions: amount of applied herbicide 320 g/ha
Procedure, shortened: as §1

barnyard grass [1] = assay: Test Example 3: herbicidal effect by foliage application, Wagner pot (Table 18, symbol H); type: in vivo, barnyard grass (Echinochloa crus-galli); conditions: 320 g/ha
Procedure, shortened: (§2)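 Plants were sown in alluvial soil held under 0.1–0.5 cm standing water and grown 14 days in a greenhouse at 25–30 °C. An emulsifiable formulation, water-diluted to the set dose, was then sprayed onto the foliage, and effects were scored three weeks later using previously defined criteria.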

Chinese sprangletop = assay: Test Example 3: herbicidal effect by foliage application, Wagner pot (Table 18, symbol D); type: in vivo, chinese sprangletop (Leptochloa chinensis); conditions: 320 g/ha
Procedure, shortened: as §2

rice flat sedge = assay: Test Example 3: herbicidal effect by foliage application, Wagner pot (Table 18, symbol E); type: in vivo, rice flat sedge (Cyperus iria); conditions: 320 g/ha
Procedure, shortened: as §2

southern crabgrass [2] = assay: Test Example 4: herbicidal effect by soil treatment (Table 19, symbol F); type: in vivo, southern crabgrass (Digitaria ciliaris); conditions: amount of applied herbicide 320 g/ha
Procedure, shortened: (§3)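 Soil-surface application: an emulsion agent diluted with water to the predetermined dose is sprayed uniformly over seeds lying under roughly 1.5 cm of sterilized diluvial soil. Boxes stay in a greenhouse at 25° C. to 30° C. Three weeks later, each species is graded on previously defined criteria.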

green foxtail [3] = assay: Test Example 4: herbicidal effect by soil treatment (Table 19, symbol G); type: in vivo, green foxtail (Setaria viridis); conditions: amount of applied herbicide 320 g/ha
Procedure, shortened: as §3

barnyard grass [4] = assay: Test Example 4: herbicidal effect by soil treatment (Table 19, symbol H); type: in vivo, barnyard grass (Echinochloa crus-galli); conditions: amount of applied herbicide 320 g/ha
Procedure, shortened: as §3

wild oat [5] = assay: Test Example 4: herbicidal effect by soil treatment (Table 19, symbol I); type: in vivo, wild oat (Avena fatua); conditions: amount of applied herbicide 320 g/ha
Procedure, shortened: as §3

blackgrass [6] = assay: Test Example 4: herbicidal effect by soil treatment (Table 19, symbol J); type: in vivo, blackgrass (Alopecurus myosuroides); conditions: amount of applied herbicide 320 g/ha
Procedure, shortened: as §3

Italian ryegrass [7] = assay: Test Example 4: herbicidal effect by soil treatment (Table 19, symbol K); type: in vivo, Italian ryegrass (Lolium multiflorum); conditions: amount of applied herbicide 320 g/ha
Procedure, shortened: as §3

windgrass [8] = assay: Test Example 4: herbicidal effect by soil treatment (Table 19, symbol L); type: in vivo, windgrass (Apera spica-venti); conditions: amount of applied herbicide 320 g/ha
Procedure, shortened: as §3

velvetleaf [9] = assay: Test Example 4: herbicidal effect by soil treatment (Table 19, symbol M); type: in vivo, velvetleaf (Abutilon theophrasti); conditions: amount of applied herbicide 320 g/ha
Procedure, shortened: as §3

redroot pigweed [10] = assay: Test Example 4: herbicidal effect by soil treatment (Table 19, symbol N); type: in vivo, redroot pigweed (Amaranthus retroflexus); conditions: amount of applied herbicide 320 g/ha
Procedure, shortened: as §3

lambsquarters [11] = assay: Test Example 4: herbicidal effect by soil treatment (Table 19, symbol O); type: in vivo, lambsquarters (Chenopodium album); conditions: amount of applied herbicide 320 g/ha
Procedure, shortened: as §3

chickweed [12] = assay: Test Example 4: herbicidal effect by soil treatment (Table 19, symbol P); type: in vivo, common chickweed (Stellaria media); conditions: amount of applied herbicide 320 g/ha
Procedure, shortened: as §3

persian speedwell [13] = assay: Test Example 4: herbicidal effect by soil treatment (Table 19, symbol R); type: in vivo, Persian speedwell (Veronica persica); conditions: amount of applied herbicide 320 g/ha
Procedure, shortened: as §3

southern crabgrass [14] = assay: Test Example 5: herbicidal effect by foliage application, plastic box (Table 20, symbol F); type: in vivo, southern crabgrass (Digitaria ciliaris); conditions: amount of applied herbicide 320 g/ha; foliage application after 14-day growth; evaluated three weeks after application
Procedure, shortened: (§4)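 Sow seeds spot-wise in sterilized diluvial soil; cover with ~1.5 cm soil. Grow 14 days in greenhouse, 25° C. to 30° C. Spray foliage with emulsion diluted to predetermined amount. Rate effect after 3 weeks.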

green foxtail [15] = assay: Test Example 5: herbicidal effect by foliage application, plastic box (Table 20, symbol G); type: in vivo, green foxtail (Setaria viridis); conditions: amount of applied herbicide 320 g/ha; foliage application after 14-day growth; evaluated three weeks after application
Procedure, shortened: as §4

barnyard grass [16] = assay: Test Example 5: herbicidal effect by foliage application, plastic box (Table 20, symbol H); type: in vivo, barnyard grass (Echinochloa crus-galli); conditions: amount of applied herbicide 320 g/ha; foliage application after 14-day growth; evaluated three weeks after application
Procedure, shortened: as §4

wild oat [17] = assay: Test Example 5: herbicidal effect by foliage application, plastic box (Table 20, symbol I); type: in vivo, wild oat (Avena fatua); conditions: amount of applied herbicide 320 g/ha; foliage application after 14-day growth; evaluated three weeks after application
Procedure, shortened: as §4

blackgrass [18] = assay: Test Example 5: herbicidal effect by foliage application, plastic box (Table 20, symbol J); type: in vivo, blackgrass (Alopecurus myosuroides); conditions: amount of applied herbicide 320 g/ha; foliage application after 14-day growth; evaluated three weeks after application
Procedure, shortened: as §4

Italian ryegrass [19] = assay: Test Example 5: herbicidal effect by foliage application, plastic box (Table 20, symbol K); type: in vivo, Italian ryegrass (Lolium multiflorum); conditions: amount of applied herbicide 320 g/ha; foliage application after 14-day growth; evaluated three weeks after application
Procedure, shortened: as §4

windgrass [20] = assay: Test Example 5: herbicidal effect by foliage application, plastic box (Table 20, symbol L); type: in vivo, windgrass (Apera spica-venti); conditions: amount of applied herbicide 320 g/ha; foliage application after 14-day growth; evaluated three weeks after application
Procedure, shortened: as §4

velvetleaf [21] = assay: Test Example 5: herbicidal effect by foliage application, plastic box (Table 20, symbol M); type: in vivo, velvetleaf (Abutilon theophrasti); conditions: amount of applied herbicide 320 g/ha; foliage application after 14-day growth; evaluated three weeks after application
Procedure, shortened: as §4

redroot pigweed [22] = assay: Test Example 5: herbicidal effect by foliage application, plastic box (Table 20, symbol N); type: in vivo, redroot pigweed (Amaranthus retroflexus); conditions: amount of applied herbicide 320 g/ha; foliage application after 14-day growth; evaluated three weeks after application
Procedure, shortened: as §4

lambsquarters [23] = assay: Test Example 5: herbicidal effect by foliage application, plastic box (Table 20, symbol O); type: in vivo, lambsquarters (Chenopodium album); conditions: amount of applied herbicide 320 g/ha; foliage application after 14-day growth; evaluated three weeks after application
Procedure, shortened: as §4

chickweed [24] = assay: Test Example 5: herbicidal effect by foliage application, plastic box (Table 20, symbol P); type: in vivo, common chickweed (Stellaria media); conditions: amount of applied herbicide 320 g/ha; foliage application after 14-day growth; evaluated three weeks after application
Procedure, shortened: as §4

persian speedwell [25] = assay: Test Example 5: herbicidal effect by foliage application, plastic box (Table 20, symbol R); type: in vivo, Persian speedwell (Veronica persica); conditions: amount of applied herbicide 320 g/ha; foliage application after 14-day growth; evaluated three weeks after application
Procedure, shortened: as §4

| Structure (SMILES) | Herbicidal effect, A: late watergrass (late watergrass) | Herbicidal effect, B: Japanese bulrush (Japanese bulrush) | Herbicidal effect, C: oval-leafed pondweed (oval-leafed pondweed) | herbicidal effect on barnyard grass (H) (barnyard grass [1]) | herbicidal effect on Chinese sprangletop (D) (Chinese sprangletop) | herbicidal effect on rice flat sedge (E) (rice flat sedge) | Herbicidal effect by foliage application, F: southern crabgrass (southern crabgrass [14]) | Herbicidal effect by foliage application, G: green foxtail (green foxtail [15]) | Herbicidal effect by foliage application, H: barnyard grass (barnyard grass [16]) | Herbicidal effect by foliage application, I: wild oat (wild oat [17]) | Herbicidal effect by foliage application, J: blackgrass (blackgrass [18]) | Herbicidal effect by foliage application, K: Italian ryegrass (Italian ryegrass [19]) | Herbicidal effect by foliage application, L: windgrass (windgrass [20]) | Herbicidal effect by foliage application, M: velvetleaf (velvetleaf [21]) | Herbicidal effect by foliage application, N: redroot pigweed (redroot pigweed [22]) | Herbicidal effect by foliage application, O: lambsquarters (lambsquarters [23]) | Herbicidal effect by foliage application, P: chickweed (chickweed [24]) | Herbicidal effect by foliage application, R: persian speedwell (persian speedwell [25]) | other results |
| --- | --- | --- | --- | --- | --- | --- | --- | --- | --- | --- | --- | --- | --- | --- | --- | --- | --- | --- | --- |
| CSc1ccc(-c2sc3c(C)cccc3c2-c2c(O)c(C)nn(C)c2=O)cc1 [4-118] | 3 (Herbicidal rate of 40% or more and less than 70%) | 2 (Herbicidal rate of 20% or more and less than 40%) | 2 (Herbicidal rate of 20% or more and less than 40%) | 4 (Herbicidal rate of 70% or more and less than 90%) | 3 (Herbicidal rate of 40% or more and less than 70%) | 4 (Herbicidal rate of 70% or more and less than 90%) | 3 (Herbicidal rate of 40% or more and less than 70%) | 3 (Herbicidal rate of 40% or more and less than 70%) | 3 (Herbicidal rate of 40% or more and less than 70%) | 3 (Herbicidal rate of 40% or more and less than 70%) | 5 (Herbicidal rate of 90% or more (almost completely withered)) | 5 (Herbicidal rate of 90% or more (almost completely withered)) | 5 (Herbicidal rate of 90% or more (almost completely withered)) | 5 (Herbicidal rate of 90% or more (almost completely withered)) | 5 (Herbicidal rate of 90% or more (almost completely withered)) | 5 (Herbicidal rate of 90% or more (almost completely withered)) | 5 (Herbicidal rate of 90% or more (almost completely withered)) | 5 (Herbicidal rate of 90% or more (almost completely withered)) | Herbicidal effect by soil treatment, F: southern crabgrass (southern crabgrass [2]): 0 (Herbicidal rate of 5% or less (almost no effect)); Herbicidal effect by soil treatment, G: green foxtail (green foxtail [3]): 0 (Herbicidal rate of 5% or less (almost no effect)); Herbicidal effect by soil treatment, H: barnyard grass (barnyard grass [4]): 0 (Herbicidal rate of 5% or less (almost no effect)); Herbicidal effect by soil treatment, I: wild oat (wild oat [5]): 0 (Herbicidal rate of 5% or less (almost no effect)); Herbicidal effect by soil treatment, J: blackgrass (blackgrass [6]): 0 (Herbicidal rate of 5% or less (almost no effect)); Herbicidal effect by soil treatment, K: Italian ryegrass (Italian ryegrass [7]): 5 (Herbicidal rate of 90% or more (almost completely withered)); Herbicidal effect by soil treatment, L: windgrass (windgrass [8]): 0 (Herbicidal rate of 5% or less (almost no effect)); Herbicidal effect by soil treatment, M: velvetleaf (velvetleaf [9]): 3 (Herbicidal rate of 40% or more and less than 70%); Herbicidal effect by soil treatment, N: redroot pigweed (redroot pigweed [10]): 5 (Herbicidal rate of 90% or more (almost completely withered)); Herbicidal effect by soil treatment, O: lambsquarters (lambsquarters [11]): 5 (Herbicidal rate of 90% or more (almost completely withered)); Herbicidal effect by soil treatment, P: chickweed (chickweed [12]): 4 (Herbicidal rate of 70% or more and less than 90%); Herbicidal effect by soil treatment, R: persian speedwell (persian speedwell [13]): 4 (Herbicidal rate of 70% or more and less than 90%) |
| CCCC(=O)Oc1c(C)nn(C)c(=O)c1-c1c(-c2ccc(OC)cc2)sc2cc(F)c(F)cc12 [5-015] | 3 (Herbicidal rate of 40% or more and less than 70%) | 0 (Herbicidal rate of 5% or less (almost no effect)) | 0 (Herbicidal rate of 5% or less (almost no effect)) | 2 (Herbicidal rate of 20% or more and less than 40%) | 2 (Herbicidal rate of 20% or more and less than 40%) | 3 (Herbicidal rate of 40% or more and less than 70%) | 0 (Herbicidal rate of 5% or less (almost no effect)) | 0 (Herbicidal rate of 5% or less (almost no effect)) | 0 (Herbicidal rate of 5% or less (almost no effect)) | 0 (Herbicidal rate of 5% or less (almost no effect)) | 0 (Herbicidal rate of 5% or less (almost no effect)) | 0 (Herbicidal rate of 5% or less (almost no effect)) | 0 (Herbicidal rate of 5% or less (almost no effect)) | 4 (Herbicidal rate of 70% or more and less than 90%) | 5 (Herbicidal rate of 90% or more (almost completely withered)) | 5 (Herbicidal rate of 90% or more (almost completely withered)) | 5 (Herbicidal rate of 90% or more (almost completely withered)) | 5 (Herbicidal rate of 90% or more (almost completely withered)) | F: southern crabgrass, herbicidal effect grade (southern crabgrass [2]): 0 (Herbicidal rate of 5% or less (almost no effect)); G: green foxtail, herbicidal effect grade (green foxtail [3]): 0 (Herbicidal rate of 5% or less (almost no effect)); H: barnyard grass, herbicidal effect grade (barnyard grass [4]): 0 (Herbicidal rate of 5% or less (almost no effect)); I: wild oat, herbicidal effect grade (wild oat [5]): 0 (Herbicidal rate of 5% or less (almost no effect)); J: blackgrass, herbicidal effect grade (blackgrass [6]): 0 (Herbicidal rate of 5% or less (almost no effect)); K: Italian ryegrass, herbicidal effect grade (Italian ryegrass [7]): 0 (Herbicidal rate of 5% or less (almost no effect)); L: windgrass, herbicidal effect grade (windgrass [8]): 0 (Herbicidal rate of 5% or less (almost no effect)); M: velvetleaf, herbicidal effect grade (velvetleaf [9]): 0 (Herbicidal rate of 5% or less (almost no effect)); N: redroot pigweed, herbicidal effect grade (redroot pigweed [10]): 4 (Herbicidal rate of 70% or more and less than 90%); O: lambsquarters, herbicidal effect grade (lambsquarters [11]): 4 (Herbicidal rate of 70% or more and less than 90%); P: chickweed, herbicidal effect grade (chickweed [12]): 3 (Herbicidal rate of 40% or more and less than 70%); R: persian speedwell, herbicidal effect grade (persian speedwell [13]): 5 (Herbicidal rate of 90% or more (almost completely withered)) |
